Reference: ChEMBL document CHEMBL1149133, “3,3-diaryl-1,3-dihydroindol-2-ones as antiproliferatives mediated by translation initiation inhibition” (2004)

Assays:
[1] = Compound evaluated for their ability to phosphorylate eIF2R; type: functional; set-up: unit not given here
[2] = system: Lung cancer cell line; test: In vitro anticancer activity against human lung cancer cell line; type: functional

GI50 [2]	SMILES	Activity [1]
	O=C1Nc2ccccc2C1(c1ccccc1)c1ccc(O)cc1 (stereo not given)	0.86
13 µM	O=C1Nc2ccccc2C1(c1ccccc1)c1ccccc1	1
14 µM	O=C1Nc2ccc([N+](=O)[O-])cc2C1(c1ccccc1)c1ccccc1	1.2
	COc1ccccc1C1(c2ccc(C(C)(C)C)cc2)C(=O)Nc2ccccc21 (stereo not given)	0.93
8 µM	CC(C)(C)c1ccc(C2(c3ccccc3)C(=O)Nc3ccccc32)cc1 (stereo not given)	0.95
	O=C1Nc2ccc(Br)cc2C1(c1ccccc1)c1ccccc1	0.79
8 µM	O=C1Nc2ccc(I)cc2C1(c1ccccc1)c1ccccc1	1.31
9 µM	O=C1Nc2ccc(S(=O)(=O)O)cc2C1(c1ccccc1)c1ccccc1	
7 µM	CC(C)(C)c1ccc(C2(c3ccccc3O)C(=O)Nc3ccccc32)cc1 (stereo not given)	1.33
4 µM	CC(C)(C)c1cccc(C2(c3ccccc3)C(=O)Nc3ccccc32)c1 (stereo not given)	1.04
	O=C1Nc2cc(Br)ccc2C1(c1ccccc1)c1ccccc1	0.89
	O=C1Nc2ccc(Cl)cc2C1(c1ccccc1)c1ccccc1	0.61
4 µM	CC(C)(C)c1ccc(O)c(C2(c3ccccc3)C(=O)Nc3ccccc32)c1 (stereo not given)	2
> 20 µM	CN1C(=O)C(c2ccccc2)(c2ccccc2)c2ccccc21	
> 20 µM	CCc1ccc2c(c1)C(c1ccccc1)(c1ccccc1)C(=O)N2	0.85
14 µM	CC(C)(C)c1ccc(C2(c3ccc(O)cc3)C(=O)Nc3ccccc32)cc1 (stereo not given)	2.01
	O=C1Nc2ccccc2C1(c1ccccc1)c1ccccc1O (stereo not given)	0.56
	CC(C)(C)c1ccc(O)c(C2(c3ccccc3)C(=O)Nc3ccc(I)cc32)c1 (stereo not given)	1.4
	COc1ccccc1C1(c2ccccc2)C(=O)Nc2ccccc21 (stereo not given)	0.48
	O=C1Nc2cccc(Br)c2C1(c1ccccc1)c1ccccc1	0.84
	O=C1Nc2ccc(F)cc2C1(c1ccccc1)c1ccccc1	0.44
